Measured values taken from patent US20150031761A1, “USE OF 5-AMINOLEVULINIC ACID AND DERIVATIVES IN A SOLID FORM FOR PHOTODYNAMIC TREATMENT AND DIAGNOSIS” (Photocure ASA, priority 2007, published 2015).

Experiment: Stress-study at 80° C. of HAL HCl with excipients, impurities by HPLC
Assay type: physicochemical
Set-up: key to level of impurity at relative retention time 0.8: **: An empty entry indicates no detectable levels
Conditions: 20 hours, relative to a pyrazine standard
Method: In order to get an indication of the stability of HAL in the presence of various excipients, a stress-study at 80° C. was performed. 100 mg HAL HCl+300 mg excipient (Poloxamer 188, Gelucire 44/14, Gelucire mixture (44/14:50/02=[…] w/w) and Miglyol 812 N) was mixed and the result after 20 hours was analysed by HPLC. The level of each impurity was calculated relative to a pyrazine standard.

CCCCCCOC(=O)CCC(=O)CN.Cl [HAL- HCl, Hexyl 5-aminolevulinate hydrochloride]
level of impurity Pyrazine: 1.77% | level of impurity at relative retention time 0.8: ** | level of impurity at relative retention time 0.88: 0.46% | level of impurity at relative retention time 1.37: 0.03% | level of impurity at relative retention time 1.91: 0.35% | level of impurity at relative retention time 2.06: 0.16%
